Experimental data reported in paper PMC4792161, “A novel pyrazole derivative protects from ovariectomy-induced osteoporosis through the inhibition of NADPH oxidase” (Scientific Reports, 2016).
Marks after values point to notes of the source that are not given here.

Assays:
[1] = Direct ROS (H2O2) scavenging in vitro; conditions: 1 mM NAC, 1 mM H2O2, control scavenger
Description: Based on the notion that the differentiation of OCs is mediated by Nox1/2/4-dependent ROS generation, we have performed a high throughput enzyme inhibitor screening assay to identify chemical compounds having Nox1/2/4 inhibitory activity for the development of an anti-osteoporosis agent. Purified Drosophila membranes expressing human Nox1, Nox2, or Nox4 were used to monitor ROS production by determining the oxidation of lucigenin, evident as chemiluminescence, in the absence or presence of chemical compound[18]. A chemical library containing 31,000 compounds was screened to identify Nox inhibitors. […] (Fig. 1B, Supplementary Fig. S2). […] Moreover, we investigated whether Ewha-18278 can directly scavenge ROS in vitro.
Supplementary Figure S3. (A) Ewha-18278 compounds can not directly scavenge superoxide or other reactive species in vitro. ROS (H2O2) measured with lucigenin. Reaction mixtures contained 1 […]
Luminescence measured over 30 min at 37
°C with luminometor (Gloma X luminometor, Turner BioSystem). […]
the phagocytosis of zymosan. […]
incubated with FITC-zymosan particles, and internalized fluorescence was measured by flow cytometry. The data are presented as the MFI of internalized FITC. Data represent mean ± S.D. […]

[2] = test system: bone density; parameters: method as in PMID 16754727; conditions: estrogen replacement; cited from earlier work
[3] = Body weight changes in OVX mice; assay type: in vivo, ddY mice; conditions: risedronate 2.5 mg/kg; Ewha-18278 2.5, 5, 10 and 20 mg/kg; 28 days
Protocol: (§1) The study was reviewed and approved by the Institutional Animal Care and Use Committee (IACUC) of Center for Laboratory Animal Sciences, Ewha Industry-University Cooperation Foundation, Ewha Womans University. Experimental methods were carried out in accordance with the approved ethic guidelines in Ewha Industry-University Cooperation Foundation, Ewha Womans University. Beginning 4 weeks after OVX, the female ddY mice received 2.5, 5, 10, or 20 mg/kg of #18–278, 2.5 mg/kg of risedronate, or vehicle once daily for 28 days. The Changes in body weight, bone weight, bone mineral density (BMD), failure load (FL), bone calcium (Ca), inorganic phosphorus (P) contents, histology and histomorphology were monitored. Serum osteocalcin and bone specific alkaline phosphatase (bALP) were monitored in mice receiving Ewha-18278.
R esi dronat e 2. 5mg/kg t reated mi ce […]
D ay after administration (d)
Supplementary Figure S7. Body weight changes in OVX mice. We selected eight mice per group showing more increases of body weights as compared with sham-operated mice and regarded as good OVX animals at four weeks after OVX surgery, consequently, significant increases of body weights were detected in all OVX groups as compared with sham control mice throughout 28 days of […]
mice, in the present study. Values are expressed mean ± S.D. of eight mice. Risedronate sodium was administered at 2.5mg/kg levels. […]

[4] = test system: OVX-induced osteoporotic ddY mice; experiment: Femur weights (wet, dry, ash) in OVX mice; assay type: in vivo; conditions: 2.5 mg/kg oral once daily 28 days
Protocol: (§2) The right sides of femur and tibia were weighed and then dried at 120 °C for 8 hours. The dried bones were carbonized at 800 °C for 6 hours in a furnace (Daihan Scientific, Korea) to detect ash absolute weights, after measurement of BMD and failure load. To reduce the individual body weight differences, the relative weight (%) was calculated using body weight at sacrifice and absolute weight as [Relative bone weights = (Absolute bone weight/Body weight at sacrifice) ×100]. In addition, ashed bones were ground and dissolved in nitric acid. In diluted solution, Ca and P contents were calculated (mg/g bone) using an orthocresolphthalein complex and enzyme methods, respectively. The Ca/P ratio (%) was calculated as (Tibia Ca contents/Tibia P contents) ×100.

[5] = test system: OVX-induced osteoporotic ddY mice; experiment: Femur histopathology-histomorphometry in OVX mice; assay type: in vivo; conditions: 2.5 mg/kg oral once daily 28 days
Protocol: Risedronate sodium (2.5 mg/kg) served as a reference compound. […] Histopathology and histomorphometrical analyses including trabecular bone volume (BV/TV), trabecular bone number (Tb.N), trabecular bone length (Tb.Le), trabecular bone thickness (Tb.Th), cortical bone thickness (Ct.Th), OC number (N.Oc), bone mineral density (BMD) and bone strength (failure load, FL) were conducted.
as §1
The left side of femur of each mouse was separated and fixed in 10% neutral buffered formalin and decalcified in a solution comprised of 24.4% formic acid and 0.5N sodium hydroxide for 5 days, with spent solution replaced with fresh solution each day. Each sample was embedded in paraffin, sectioned to a thickness of 3–4 μm and exposed to with Hematoxylin & Eosin (H&E) stain. Histomorphometry was conducted as for bone mass and structure with bone resorption in a uniform area of epiphyseal regions of femur (growth plate regions were excluded). Cortical bone thickness was measured in the mid-shaft region of the femur.

[6] = test system: OVX rats; conditions: 2.5 mg/kg/day for 8 weeks; cited from earlier work
[7] = test system: OVX-induced osteoporotic ddY mice; experiment: Tibia histopathology-histomorphometry in OVX mice; assay type: in vivo; conditions: 2.5 mg/kg oral once daily 28 days
[8] = test system: OVX-induced osteoporotic ddY mice; experiment: Tibia weights (wet, dry, ash) in OVX mice; assay type: in vivo; conditions: 2.5 mg/kg oral once daily 28 days
Protocol: as §2
Supplementary Table S4. Tibia Weights in OVX Mice Values are expressed mean ± S.D. of eight mice Risedronate sodium was administered at 2.5mg/kg levels a p<0.01 as compared with sham control […]
material OVX = ovariectomy
Groups Tibia absolute weights (g) Tibia relative weights (% of body weight)Wet Dry Ash Wet Dry Ash

[9] = test system: OVX-induced osteoporotic ddY mice; experiment: Bone strength (failure load, three-point bending test) in OVX mice; assay type: in vivo; conditions: oral once daily 28 days; risedronate 2.5 mg/kg

With CC(=O)N[C@@H](CS)C(=O)O [N-acetyl cysteine, reference compound] the “change in hydrogen peroxide concentration (ROS scavenging)” value [1] was “decrease in hydrogen peroxide concentration”.

For O=C(c1ccc(OCCN2CCCCC2)cc1)c1c(-c2ccc(O)cc2)sc2cc(O)ccc12 [Raloxifene], the “increase of bone density” value [2] is given as 3–4%.

With O=P(O)(O)C(O)(Cc1cccnc1)P(=O)(O)O [Risedronate, Risedronate sodium, reference compound] the “body weights as compared with OVX control mice” value [3] was “no meaningful changes”, the “Femur absolute weights, Ash” value [4] was 0.037 g and the “Femur absolute weights, Dry” value [4] was 0.066 g. The “Femur absolute weights, Wet” value [4] was 0.096 g, the “Femur relative weights, Ash” value [4] was 0.102 % of body weight and the “Femur relative weights, Dry” value [4] was 0.181 % of body weight. The “Femur relative weights, Wet” value [4] was 0.263 % of body weight, the “BV/TV (trabecular bone volume)” value [5] was 38.08 ± 7.20 ^c % and the “Ct.Th (cortical bone thickness)” value [5] was 128.36 ± 15.57 ^a μm. For the same molecule, the “N.OC/BS (osteoclast cell number, N/epiphyseal)” value [5] was 19.00 ± 2.93 ^eg numbers, the “Tb.Le (trabecular bone length)” value [5] was 1.04 ± 0.12 ^ac mm and the “Tb.N (trabecular bone number, N/epiphyseal)” value [5] was 24.50 ± 4.00 ^eg numbers. The “Tb.Th (trabecular bone thickness)” value [5] was 47.25 ± 4.73 ^ad μm, the “microstructural and biomechanical features of bone” value [6] was “maintains microstructural and biomechanical features of bone” and the “BV/TV (trabecular bone volume)” value [7] was 35.71 ± 5.63 ^c %. For the same molecule, the “Ct.Th (cortical bone thickness)” value [7] was 113.81 ± 14.45 ^a μm, the “N.OC/BS (osteoclast cell number, N/epiphyseal)” value [7] was 19.38 ± 3.20 ^ac numbers and the “Tb.Le (trabecular bone length)” value [7] was 0.76 ± 0.12 ^ac mm. The “Tb.N (trabecular bone number, N/epiphyseal)” value [7] was 19.25 ± 1.67 ^bc numbers, the “Tb.Th (trabecular bone thickness)” value [7] was 43.52 ± 8.73 ^ac μm and the “Tibia absolute weights, Ash” value [8] was 0.031 g. The “Tibia absolute weights, Dry” value [8] was 0.050 g, the “Tibia absolute weights, Wet” value [8] was 0.071 g and the “Tibia relative weights, Ash” value [8] was 0.085 % of body weight. The “Tibia relative weights, Dry” value [8] was 0.137 % of body weight, the “Tibia relative weights, Wet” value [8] was 0.196 % of body weight and the “bone strength (FL) of femur and tibia compared to control OVX” value [9] was “did not show any favorable effects”.
